Experimental data reported in patent publication US20050288307A1, “Anti-viral compounds” (priority 2002, published 2005).
Read-outs that look alike come from different tables or passages of the source.

Legend:
CDK2/Cyclin E = target: T1, CDK2/Cyclin E (Homo sapiens, UniProt P24941); test: CDK2/cyclin E kinase assay (GST-Rb phosphorylation); type: biochemical;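 also: enzyme source: His-tagged CDK2/cyclin E complex co-expressed recombinantly in Sf9 insect cells using baculovirus constructs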
T1 construct: His; made in house; host or cells: Sf9 insect cells (baculovirus)
Description: (§1) His-tagged CDK2/Cyclin E and CDK1/Cyclin B may be co-expressed and PKCα singularly expressed in Sf 9 insect cells infected with the appropriate baculovirus constructs. The cells are harvested two days after infection by low speed centrifugation and the proteins purified from the insect cell pellets by Metal-chelate chromatography. Briefly, the insect cell pellet is lysed in Buffer A (10 mM Tris-HCl, pH 8.0, 150 mM NaCl, 0.02% NP40 and 5 mM β-marcaptoethanol, 1 mM NaF. 1 mM Na3VO4 and Protease Inhibitors Coctail (Sigma) containing AEBSF, pepstatin A, E 64, bestatin, leupeptin) by sonication. The soluble fraction is cleared by centrifugation and loaded onto Ni-NTA-Agarose (Quiagen). Non bound proteins were washed off with 300 mM NaCl, 5-15 mM Imidazole in Buffer A and the bound proteins eluted with 250 mM Imidazole in Buffer A. The purified proteins are extensively dialyzed against Storage buffer (20 mM HEPES pH 7.4, 50 mM NaCl, 2 mM DTT, 1 mM EDTA, 1 mM EGTA, 0.02% NP40, 10% v/v Glycerol) aliquoted and stored at −70° C.

CDK1/Cyclin B = CDK1/Cyclin B (Homo sapiens, UniProt P06493); test: CDK1/cyclin B kinase assay (GST-Rb phosphorylation);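 also: Enzyme: His-tagged CDK1/Cyclin B co-expressed in baculovirus-infected Sf9 insect cells, purified via metal-chelate chromatography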
CDK1/Cyclin B, sequence (P06493 whole entry, species assumed): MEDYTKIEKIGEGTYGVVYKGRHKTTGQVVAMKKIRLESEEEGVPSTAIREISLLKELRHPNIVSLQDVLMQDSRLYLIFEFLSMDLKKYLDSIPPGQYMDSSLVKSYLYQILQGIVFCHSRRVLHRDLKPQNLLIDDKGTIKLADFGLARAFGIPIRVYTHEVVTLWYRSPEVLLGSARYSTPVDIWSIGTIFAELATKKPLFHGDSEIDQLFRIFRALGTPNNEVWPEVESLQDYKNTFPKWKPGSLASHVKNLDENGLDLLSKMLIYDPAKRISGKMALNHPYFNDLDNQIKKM
CDK1/Cyclin B, sequence (P14635 whole entry partner, species assumed): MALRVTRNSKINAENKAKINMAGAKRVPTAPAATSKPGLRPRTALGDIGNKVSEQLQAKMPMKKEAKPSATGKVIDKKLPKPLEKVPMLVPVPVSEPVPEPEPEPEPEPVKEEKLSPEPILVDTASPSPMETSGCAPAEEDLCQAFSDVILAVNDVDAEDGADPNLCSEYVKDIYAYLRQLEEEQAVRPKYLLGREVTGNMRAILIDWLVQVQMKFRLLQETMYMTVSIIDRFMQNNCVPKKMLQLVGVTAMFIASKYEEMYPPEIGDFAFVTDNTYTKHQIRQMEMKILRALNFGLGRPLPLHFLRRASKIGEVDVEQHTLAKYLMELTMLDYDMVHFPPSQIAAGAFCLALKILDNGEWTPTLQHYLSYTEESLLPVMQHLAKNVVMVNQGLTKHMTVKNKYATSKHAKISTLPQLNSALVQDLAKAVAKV
Description: as §1

CDK9/cyclin T1 = CDK9/cyclin T1 (Homo sapiens, UniProt P50750); test: CDK9 assay (CTD peptide substrate); type: biochemical
CDK9/cyclin T1, sequence (P50750 whole entry): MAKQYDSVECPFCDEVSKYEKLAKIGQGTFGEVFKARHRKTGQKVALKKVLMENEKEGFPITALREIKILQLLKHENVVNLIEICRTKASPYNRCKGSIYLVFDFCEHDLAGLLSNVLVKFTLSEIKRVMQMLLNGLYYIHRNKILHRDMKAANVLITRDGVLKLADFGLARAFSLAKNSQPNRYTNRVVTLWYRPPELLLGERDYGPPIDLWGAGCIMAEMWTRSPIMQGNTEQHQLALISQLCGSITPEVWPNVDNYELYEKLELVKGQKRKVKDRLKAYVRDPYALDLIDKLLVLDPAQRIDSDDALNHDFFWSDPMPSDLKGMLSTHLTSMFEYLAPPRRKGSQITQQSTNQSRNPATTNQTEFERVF
CDK9/cyclin T1, sequence (O60563 whole entry partner): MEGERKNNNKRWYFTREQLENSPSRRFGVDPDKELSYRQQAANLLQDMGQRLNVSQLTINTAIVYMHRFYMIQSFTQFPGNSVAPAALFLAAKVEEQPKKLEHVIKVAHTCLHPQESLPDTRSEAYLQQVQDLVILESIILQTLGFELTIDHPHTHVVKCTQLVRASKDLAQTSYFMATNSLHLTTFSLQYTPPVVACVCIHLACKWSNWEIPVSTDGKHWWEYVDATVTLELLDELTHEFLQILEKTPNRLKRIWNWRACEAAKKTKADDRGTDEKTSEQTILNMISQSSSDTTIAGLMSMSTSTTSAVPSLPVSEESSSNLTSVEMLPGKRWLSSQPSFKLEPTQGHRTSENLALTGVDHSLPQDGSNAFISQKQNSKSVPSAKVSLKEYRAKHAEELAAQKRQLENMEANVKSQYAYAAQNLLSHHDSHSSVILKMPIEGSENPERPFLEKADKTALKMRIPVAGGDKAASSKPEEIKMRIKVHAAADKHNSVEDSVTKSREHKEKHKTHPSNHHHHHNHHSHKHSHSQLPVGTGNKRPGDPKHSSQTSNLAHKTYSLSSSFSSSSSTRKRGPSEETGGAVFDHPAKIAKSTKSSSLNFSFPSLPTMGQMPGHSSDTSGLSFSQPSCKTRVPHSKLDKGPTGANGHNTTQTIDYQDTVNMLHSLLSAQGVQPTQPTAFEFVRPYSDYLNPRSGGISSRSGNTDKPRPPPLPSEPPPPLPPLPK
Description: CTD peptide substrate (biotinyl-Ahx-(Tyr-Ser-Pro-Thr-Ser-Pro-Ser)4-NH2; 1-2 mg/mL) and recombinant human CDK7/cyclin H, CDK9/cyclin T1, or CDK9/cyclin K (0.5-2 μg) were incubated for 45 min at 30° C. in the presence of varying amounts of test compound in 20 mM MOPS pH 7.2, 25 mM β-glycerophosphate, 5 mM EGTA, 1 mM DTT, 1 mM sodium vanadate, 15 mM MgCl2, and 100 μM ATP (containing a trace amount of ^32PγATP) in a total volume of 25 μL in a 96-well microtiter plate. The reaction was stopped by placing the plate on ice for 2 min. Avidin (50 μg) was added to each well, and the plate was incubated at room temp for 30 min. The samples were transferred to a 96-well P81 filter plate, and washed (4×200 μL per well) with 75 mM phosphoric acid. Microscint 40 scintillation liquid (50 μL) was added to each well, and the amount of ^32P incorporation for each sample was measured using a Packard Topcount microplate scintillation counter.

CDK4/Cyclin D1 = CDK4/Cyclin D1 (Homo sapiens, UniProt P11802); test: CDK4/cyclin D1 kinase assay (GST-Rb phosphorylation); type: biochemical; details: Table 3; read-out: Average IC50 CDK4 cyclin D1
CDK4/Cyclin D1, sequence (P11802 whole entry, species assumed): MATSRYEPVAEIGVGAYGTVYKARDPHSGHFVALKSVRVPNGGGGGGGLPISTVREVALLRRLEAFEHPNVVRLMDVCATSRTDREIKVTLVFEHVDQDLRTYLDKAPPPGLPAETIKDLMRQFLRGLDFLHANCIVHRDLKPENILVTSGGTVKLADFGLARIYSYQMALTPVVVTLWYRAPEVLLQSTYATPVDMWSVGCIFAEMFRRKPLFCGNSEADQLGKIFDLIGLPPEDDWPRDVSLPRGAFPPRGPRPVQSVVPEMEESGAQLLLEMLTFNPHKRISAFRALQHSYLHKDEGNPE
CDK4/Cyclin D1, sequence (P24385 whole entry partner, species assumed): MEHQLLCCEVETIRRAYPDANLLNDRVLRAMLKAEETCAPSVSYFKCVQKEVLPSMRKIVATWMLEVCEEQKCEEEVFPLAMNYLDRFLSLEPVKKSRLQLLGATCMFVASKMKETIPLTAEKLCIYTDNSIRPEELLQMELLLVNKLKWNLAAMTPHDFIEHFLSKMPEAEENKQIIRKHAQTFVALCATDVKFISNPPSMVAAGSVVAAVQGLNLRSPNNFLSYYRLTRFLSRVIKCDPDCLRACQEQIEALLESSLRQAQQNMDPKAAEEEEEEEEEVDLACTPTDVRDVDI

[1] = Table 3, read-out: Average IC50 CDK2 cyclin E1
[2] = Table 3, read-out: Average IC50 CDK9 cyclin T1
[3] = Table 4, read-out: Kinase Inhibition IC50 CDK9-cyclin T1

| SMILES | IC50 (CDK2/Cyclin E; [1]) [µM] | IC50 (CDK9/cyclin T1; [2]) [µM] | other results |
| --- | --- | --- | --- |
| Cc1nc(C)c(-c2ccnc(Nc3ccc(Cl)cc3)n2)s1 [Compound 2, (4-Chloro-phenyl)-[4-(2,4-dimethyl-thiazol-5-yl)-pyrimidin-2-yl]-amine] |  |  | IC50 (CDK2/Cyclin E): 5.1 µM; IC50 (CDK1/Cyclin B): 14 µM |
| Cc1nc(C)c(-c2ccnc(Nc3ccccc3F)n2)s1 [Compound 7, [4-(2,4-Dimethyl-thiazol-5-yl)-pyrimidin-2-yl]-(2-fluoro-phenyl)-amine] |  |  | IC50 (CDK1/Cyclin B): 12 µM |
| Cc1nc(C)c(-c2ccnc(Nc3cc(F)cc(F)c3)n2)s1 [Compound 10, (3,5-Difluoro-phenyl)-[4-(2,4-dimethyl-thiazol-5-yl)-pyrimidin-2-yl]-amine] | 5.9 |  | IC50 (CDK1/Cyclin B): 5.5 µM |
| Cc1nc(C)c(-c2ccnc(Nc3cc(Cl)cc(Cl)c3)n2)s1 [Compound 11, (3,5-Dichloro-phenyl)-[4-(2,4-dimethyl-thiazol-5-yl)-pyrimidin-2-yl]-amine] | 10 |  | IC50 (CDK1/Cyclin B): 20 µM |
| Cc1nc(C)c(-c2ccnc(Nc3ccc(Cl)cc3Cl)n2)s1 [Compound 12, (2,4-Dichloro-phenyl)-[4-(2,4-dimethyl-thiazol-5-yl)-pyrimidin-2-yl]-amine] | 10 |  |  |
| Cc1nc(C)c(-c2ccnc(Nc3cccc(I)c3)n2)s1 [Compound 20, [4-(2,4-Dimethyl-thiazol-5-yl)-pyrimidin-2-yl]-(3-iodo-phenyl)-amine] | 6.8 |  |  |
| Cc1nc(C)c(-c2ccnc(Nc3cccc(F)c3)n2)s1 [Compound 22, [4-(2,4-Dimethyl-thiazol-5-yl)-pyrimidin-2-yl]-(3-fluoro-phenyl)-amine] | 0.22 |  |  |
| Cc1nc(C)c(-c2ccnc(Nc3ccc(F)c(F)c3)n2)s1 [Compound 23, (3,4-Difluoro-phenyl)-[4-(2,4-dimethyl-thiazol-5-yl)-pyrimidin-2-yl]-amine] |  | 3.11 |  |
| COc1ccccc1Nc1nccc(-c2sc(C)nc2C)n1 [Compound 24, [4-(2,4-Dimethyl-thiazol-5-yl)-pyrimidin-2-yl]-(2-methoxy-phenyl)-amine] | 6.3 |  |  |
| COc1cccc(Nc2nccc(-c3sc(C)nc3C)n2)c1 [Compound 25, [4-(2,4-Dimethyl-thiazol-5-yl)-pyrimidin-2-yl]-(3-methoxy-phenyl)-amine] | 0.44 |  |  |
| Cc1nc(C)c(-c2ccnc(Nc3ccc(C(=O)O)cc3)n2)s1 [Compound 40, 4-[4-(2,4-Dimethyl-thiazol-5-yl)-pyrimidin-2-ylamino]-benzoic acid] | 0.74 |  |  |
| Cc1nc(C)c(-c2cc(Br)nc(Nc3cccc([N+](=O)[O-])c3)n2)s1 [Compound 41, [4-Bromo-6-(2,4-dimethyl-thiazol-5-yl)-pyrimidin-2-yl]-(3-nitro-phenyl)-amine] | 0.58 |  |  |
| CNc1nc(C)c(-c2ccnc(Nc3ccc(O)c([N+](=O)[O-])c3)n2)s1 [Compound 58, 4-[4-(4-Methyl-2-methylamino-thiazol-5-yl)-pyrimidin-2-ylamino]-2-nitro-phenol] | 1.5 | 0.061 |  |
| CCNc1nc(C)c(-c2ccnc(Nc3ccc(F)cc3)n2)s1 [Compound 60, [4-(2-Ethylamino-4-methyl-thiazol-5-yl)-pyrimidin-2-yl]-(4-fluoro-phenyl)-amine] | 0.51 |  |  |
| CNc1nc(C)c(-c2ccnc(Nc3cccc([N+](=O)[O-])c3)n2)s1 [Compound 61, [4-(4-Methyl-2-methylamino-thiazol-5-yl)-pyrimidin-2-yl]-(3-nitro-phenyl)-amine] | 2.1 | 0.19 |  |
| C=CCNc1nc(C)c(-c2ccnc(Nc3ccc(F)cc3)n2)s1 [Compound 67, [4-(2-Allylamino-4-methyl-thiazol-5-yl)-pyrimidin-2-yl]-(4-fluoro-phenyl)-amine] | 1.3 |  |  |
| CNc1nc(C)c(-c2ccnc(Nc3cccc(Br)c3)n2)s1 [Compound 68, (3-Bromo-phenyl)-[4-(4-methyl-2-methylamino-thiazol-5-yl)-pyrimidin-2-yl]-amine] | 27 | 0.01 |  |
| C=CCNc1nc(C)c(-c2ccnc(Nc3cccc([N+](=O)[O-])c3)n2)s1 [Compound 69, [4-(2-Allylamino-4-methyl-thiazol-5-yl)-pyrimidin-2-yl]-(3-nitro-phenyl)-amine] |  | 0.068 |  |
| CNc1nc(C)c(-c2ccnc(Nc3cccc(OC)c3)n2)s1 [Compound 73, (3-Methoxy-phenyl)-[4-(4-methyl-2-methylamino-thiazol-5-yl)-pyrimidin-2-yl]-amine] | 0.31 | 0.48 |  |
| Cc1c(-c2ccnc(Nc3ccc(O)cc3)n2)sc(=O)n1C [Compound 152, 5-[2-(4-Hydroxy-phenylamino)-pyrimidin-4-yl]-3,4-dimethyl-3H-thiazol-2-one] |  |  | IC50 (CDK9/cyclin T1; [3]): 0.0023 µM |
| Cc1c(-c2ccnc(Nc3ccc(F)cc3)n2)sc(=O)n1C [Compound 155, 5-[2-(4-Fluoro-phenylamino)-pyrimidin-4-yl]-3,4-dimethyl-3H-thiazol-2-one] |  |  | IC50 (CDK9/cyclin T1; [3]): 0.0027 µM |
| Cc1cc(Nc2nccc(-c3sc(=O)n(C)c3C)n2)ccc1F [Compound 162, 5-[2-(4-Fluoro-3-methyl-phenylamino)-pyrimidin-4-yl]-3,4-dimethyl-3H-thiazol-2-one] |  |  | IC50 (CDK9/cyclin T1; [3]): 0.079 µM |

The next lines start with results.

| IC50 (CDK2/Cyclin E; [1]) [µM] | IC50 (CDK9/cyclin T1; [2]) [µM] | SMILES | other results |
| --- | --- | --- | --- |
| 1.9 |  | CNc1nc(C)c(-c2ccnc(Nc3ccc(C(F)(F)F)cc3)n2)s1 [Compound 74, [4-(4-Methyl-2-methylamino-thiazol-5-yl)-pyrimidin-2-yl]-(4-trifluoromethyl-phenyl)-amine] |  |
| 1.2 |  | COc1ccc(Nc2nccc(-c3sc(C)nc3C)n2)c(O)c1 [Compound 79, 2-[4-(2,4-Dimethyl-thiazol-5-yl)-pyrimidin-2-ylamino]-5-methoxy-phenol] |  |
| 2 |  | COC(=O)c1cc(Nc2nccc(-c3sc(C)nc3C)n2)ccc1Cl [Compound 83, 2-Chloro-5-[4-(2,4-dimethyl-thiazol-5-yl)-pyrimidin-2-ylamino]-benzoic acid methyl ester] |  |
| 1.3 | 0.063 | CNc1nc(C)c(-c2ccnc(Nc3cccc(F)c3)n2)s1 [Compound 87, (3-Fluoro-phenyl)-[4-(4-methyl-2-methylamino-thiazol-5-yl)-pyrimidin-2-yl]-amine] |  |
| 0.001 |  | CNc1nc(C)c(-c2ccnc(Nc3ccc(OC)cc3)n2)s1 [Compound 93, (4-Methoxy-phenyl)-[4-(4-methyl-2-methylamino-thiazol-5-yl)-pyrimidin-2-yl]-amine] |  |
| 0.12 |  | O=[N+]([O-])c1ccc(Nc2ncc(-c3ccnc(Nc4ccc(O)cc4)n3)s2)cc1 [Compound 95, 4-{4-[2-(4-Nitro-phenylamino)-thiazol-5-yl]-pyrimidin-2-ylamino}-phenol] |  |
| 0.19 |  | Cc1nc(C)c(-c2ccnc(Nc3cccc(CO)c3)n2)s1 [Compound 100, {3-[4-(2,4-Dimethyl-thiazol-5-yl)-pyrimidin-2-ylamino]-phenyl}-methanol] |  |
| 0.69 |  | Cc1nc(C)c(-c2ccnc(Nc3ccc(Cc4ccncc4)cc3)n2)s1 [Compound 101, [4-(2,4-Dimethyl-thiazol-5-yl)-pyrimidin-2-yl]-(4-pyridin-4-ylmethyl-phenyl)-amine] | IC50 (CDK4/Cyclin D1): 1.1 µM |
|  | 0.24 | Cc1nc(N)sc1-c1ccnc(Nc2ccc(N(C)C)cc2)n1 [Compound 106, N-[4-(2-Amino-4-methyl-thiazol-5-yl)-pyrimidin-2-yl]-N′,N′-dimethyl-benzene-1,4-diamine] |  |
| 0.67 |  | COc1ccc(Nc2nccc(-c3sc(N)nc3C)n2)cc1 [Compound 111, [4-(2-Amino-4-methyl-thiazol-5-yl)-pyrimidin-2-yl]-(4-methoxy-phenyl)-amine] |  |
|  | 0.28 | Cc1nc(N)sc1-c1ccnc(Nc2cccc(Br)c2)n1 [Compound 119, [4-(2-Amino-4-methyl-thiazol-5-yl)-pyrimidin-2-yl]-(3-bromo-phenyl)-amine] |  |
|  | 0.17 | CNc1nc(C)c(-c2ccnc(Nc3ccc(N(C)C)cc3)n2)s1 [Compound 131, N,N-Dimethyl-N′-[4-(4-methyl-2-methylamino-thiazol-5-yl)-pyrimidin-2-yl]-benzene-1,4-diamine] |  |
|  | 0.11 | CNc1nc(C)c(-c2ccnc(Nc3ccc(I)c([N+](=O)[O-])c3)n2)s1 [Compound 132, (4-Iodo-3-nitro-phenyl)-[4-(4-methyl-2-methylamino-thiazol-5-yl)-pyrimidin-2-yl]-amine] |  |
| 2 | 5.9 | CCNc1nc(C)c(-c2ccnc(Nc3ccc(Cl)cc3)n2)s1 [Compound 134, (4-Chloro-phenyl)-[4-(2-ethylamino-4-methyl-thiazol-5-yl)-pyrimidin-2-yl]-amine] | IC50 (CDK1/Cyclin B): 22 µM |
|  | 0.004 | Cc1nc(NCCO)sc1-c1ccnc(Nc2cccc([N+](=O)[O-])c2)n1 [Compound 144, 2-{4-Methyl-5-[2-(3-nitro-phenylamino)-pyrimidin-4-yl]-thiazol-2-ylamino}-ethanol] |  |
|  | 0.008 | Cc1nc(NCCO)sc1-c1ccnc(Nc2ccc(F)cc2)n1 [Compound 145, 2-{5-[2-(4-Fluoro-phenylamino)-pyrimidin-4-yl]-4-methyl-thiazol-2-ylamino}-ethanol] |  |
